# Data published in patent publication US10968225B2, “Compounds and compositions for the treatment of cystic fibrosis” (Fondazione Istituto Italiano Di Tecnologia, priority 2017, dated 2021).
# pEC50: −log10 of the molar value. Where two headings read alike, the source gives them in different places.
# Biological target: T1, mutant CFTR (Homo sapiens, UniProt P13569, DEL508-508)
# T1 construct: expressed in transfected cells
# Test: Fluorescence (HS-YFP) assay for CFTR activity, corrector assay
# Format: cell-based
# Conditions: CFBE41o- and FRT cells with stable expression of mutant CFTR
# T1 sequence (P13569 with tags, fused parts or gaps DEL508-508): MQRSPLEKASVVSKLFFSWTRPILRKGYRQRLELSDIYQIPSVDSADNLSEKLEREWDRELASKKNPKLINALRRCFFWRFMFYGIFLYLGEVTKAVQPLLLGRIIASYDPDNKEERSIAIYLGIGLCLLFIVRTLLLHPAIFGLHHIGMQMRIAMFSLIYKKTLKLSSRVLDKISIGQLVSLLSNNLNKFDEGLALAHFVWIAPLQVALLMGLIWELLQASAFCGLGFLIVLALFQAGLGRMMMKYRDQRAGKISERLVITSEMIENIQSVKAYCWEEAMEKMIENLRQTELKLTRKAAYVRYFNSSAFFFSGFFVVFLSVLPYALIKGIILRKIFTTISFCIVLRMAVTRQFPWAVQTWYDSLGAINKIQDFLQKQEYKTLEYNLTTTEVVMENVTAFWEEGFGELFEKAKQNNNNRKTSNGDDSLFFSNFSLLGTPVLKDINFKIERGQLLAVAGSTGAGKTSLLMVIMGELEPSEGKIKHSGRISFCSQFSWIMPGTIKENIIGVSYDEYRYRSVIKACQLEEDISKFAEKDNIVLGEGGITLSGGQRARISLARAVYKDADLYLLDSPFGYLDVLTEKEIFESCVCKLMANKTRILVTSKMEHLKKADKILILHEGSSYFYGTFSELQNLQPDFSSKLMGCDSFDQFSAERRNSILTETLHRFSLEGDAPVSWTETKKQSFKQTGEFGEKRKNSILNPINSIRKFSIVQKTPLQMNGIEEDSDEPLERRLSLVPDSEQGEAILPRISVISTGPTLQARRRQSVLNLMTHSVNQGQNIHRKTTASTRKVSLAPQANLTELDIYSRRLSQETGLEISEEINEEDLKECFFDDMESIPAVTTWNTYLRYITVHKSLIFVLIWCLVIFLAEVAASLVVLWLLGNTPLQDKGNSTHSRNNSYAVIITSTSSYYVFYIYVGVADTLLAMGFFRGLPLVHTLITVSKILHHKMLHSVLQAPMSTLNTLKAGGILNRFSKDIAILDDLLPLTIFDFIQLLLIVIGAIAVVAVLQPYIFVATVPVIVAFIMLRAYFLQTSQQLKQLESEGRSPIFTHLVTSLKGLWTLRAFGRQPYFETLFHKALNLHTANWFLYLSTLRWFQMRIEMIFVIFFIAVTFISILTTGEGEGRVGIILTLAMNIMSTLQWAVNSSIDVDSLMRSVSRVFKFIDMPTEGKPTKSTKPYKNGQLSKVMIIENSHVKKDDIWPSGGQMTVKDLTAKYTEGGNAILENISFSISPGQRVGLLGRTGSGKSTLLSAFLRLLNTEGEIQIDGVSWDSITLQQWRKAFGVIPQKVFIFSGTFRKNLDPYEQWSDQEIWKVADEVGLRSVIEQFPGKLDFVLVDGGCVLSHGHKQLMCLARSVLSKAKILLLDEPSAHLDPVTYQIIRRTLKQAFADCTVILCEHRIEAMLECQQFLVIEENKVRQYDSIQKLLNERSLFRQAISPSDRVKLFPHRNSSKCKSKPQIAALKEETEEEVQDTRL
Structure (SMILES),pEC50 (activity (EC50)),pEC50 (read-out: activity (EC50))
"CN(C(=O)c1cccc(-n2nc(C(F)(F)F)c3c2C[C@@H]2CC[C@H]3N2)c1)c1ccc2c(c1)OCO2 (single isomer, unassigned) [Compound 049, (4S,7R)- or (4R,7S)—N-(Benzo[d][1,3]dioxol-5-yl)-N-methyl-3-(3-(trifluoromethyl)-5,6,7,8-tetrahydro-4,7-epiminocyclohepta [c]pyrazol-1(4H)-yl)benzamide]",5.70 to 6.00,–
"CN(c1ccc2c(c1)OCO2)S(=O)(=O)c1cccc(-n2nc(C(F)(F)F)c3c2CCN(C(=O)OC(C)(C)C)C3)c1 [Compound 065, tert-Butyl 1-[3-[1,3-benzodioxol-5-yl(methyl)sulfamoyl]phenyl]-3-(trifluoromethyl)-6,7-dihydro-4H-pyrazolo[4,3-c]pyridine-5-carboxylate]",–,< 5.70
"Cc1nc2ccc(N(C)C(=O)c3cccc(-n4nc(C(F)(F)F)c5c4CCN(S(=O)(=O)c4c(C)noc4C)C5)c3)cc2o1 [Compound 137, 3-[5-(3,5-Dimethylisoxazol-4-yl)sulfonyl-3-(trifluoromethyl)-6,7-dihydro-4H-pyrazolo[4,3-c]pyridin-1-yl]-N-methyl-N-(2-methyl-1,3-benzoxazol-6-yl)benzamide]",–,> 6.00
Cc1nc2ccc(N(C)C(=O)c3cccc(-n4nc(C(F)(F)F)c5c4C(Oc4ncc(C(=O)O)cn4)COC5)c3)cc2o1 (racemic) [Compound 297],–,> 6.00
"CN(C(=O)c1cccc(-n2nc(C(F)(F)F)c3c2C(Oc2ccc(C(=O)O)cc2)COC3)c1)c1cnc2c(c1)OCC2 (racemic) [Compound 262, 4-[[1-[3-[2,3-Dihydrofuro[3,2-b]pyridin-6-yl(methyl)carbamoyl]phenyl]-3-(trifluoromethyl)-6,7-dihydro-4H-pyrano[4,3-c]pyrazol-7-yl]oxy]benzoic acid]",–,5.70 to 6.00
"Cc1cc(OC2CCCc3c(C(F)(F)F)nn(-c4cccc(C(=O)N(C)c5ccc6c(c5)OC(F)(F)O6)c4)c32)ccc1C(=O)O (stereo not shown) [Compound 176, 4-[[1-[3-[(2,2-Difluoro-1,3-benzodioxol-5-yl)-methyl-carbamoyl]phenyl]-3-(trifluoromethyl)-4,5,6,7-tetrahydroindazol-7-yl]oxy]-2-methyl-benzoic acid]",–,> 6.00
"Cc1cc2ncc(N(C)C(=O)c3cccc(-n4nc(C(F)(F)F)c5c4[C@@H](Oc4ccc(C(=O)O)cc4)CCC5)c3)cn2n1 (single isomer, unassigned) [Compound 218, (R) or (S)-4-[[1-[3-[Methyl-(2-methylpyrazolo[1,5-a]pyrimidin-6-yl)carbamoyl]phenyl]-3-(trifluoromethyl)-4,5,6,7-tetrahydroindazol-7-yl]oxy]benzoic acid]",–,5.70 to 6.00
"Cc1cc2ncc(N(C)C(=O)c3cccc(-n4nc(C(F)(F)F)c5c4C(Oc4ccc(C(=O)O)cc4)COC5)c3)cn2n1 (racemic) [Compound 294, 4-[[1-[3-[Methyl-(2-methylpyrazolo[1,5-a]pyrimidin-6-yl)carbamoyl]phenyl]-3-(trifluoromethyl)-6,7-dihydro-4H-pyrano[4,3-c]pyrazol-7-yl]oxy]benzoic acid]",–,> 6.00
"CN(C(=O)c1cccc(-n2nc(C(F)(F)F)c3c2CCN(Cc2cccc(C(=O)O)c2)C3)c1)c1ccc2c(c1)OCO2 [Compound 025, 3-[[1-[3-[1,3-Benzodioxol-5-yl(methyl)carbamoyl]phenyl]-3-(trifluoromethyl)-6,7-dihydro-4H-pyrazolo[4,3-c]pyridin-5-yl]methyl]benzoic acid]",–,> 6.00
"CN(C(=O)c1cccc(-n2nc(C(F)(F)F)c3c2CCCN3C(=O)OC(C)(C)C)c1)c1ccc2c(c1)OCO2 [Compound 028, tert-Butyl 1-[3-[1,3-benzodioxol-5-yl(methyl)carbamoyl]phenyl]-3-(trifluoromethyl)-6,7-dihydro-5H-pyrazolo[4,3-b]pyridine-4-carboxylate]",–,> 6.00
"CN(C(=O)c1cccc(-n2nc(C(F)(F)F)c3c2C(Oc2ccc(C(=O)O)cn2)CCC3)c1)c1ccc2c(c1)OC(F)(F)O2 (single isomer, unassigned) [Compound 192, (S) or (R)-6-[[1-[3-[(2,2-Difluoro-1,3-benzodioxol-5-yl)-methyl-carbamoyl]phenyl]-3-(trifluoromethyl)-4,5,6,7-tetrahydroindazol-7-yl]oxy]pyridine-3-carboxylic acid]",–,> 6.00
"CN(C(=O)c1cccc(-n2nc(C(F)(F)F)c3c2C(Oc2ccc(C(=O)O)cc2)CCC3)c1)c1ccc(OC(F)F)nc1 (racemic) [Compound 314, 4-[[1-[3-[[6-(Difluoromethoxy)-3-pyridyl]-methyl-carbamoyl]phenyl]-3-(trifluoromethyl)-4,5,6,7-tetrahydroindazol-7-yl]oxy]benzoic acid]",–,> 6.00
"CN(C(=O)c1cccc(-n2nc(C(F)(F)F)c3c2C(Oc2ccc(C(N)=O)cc2)CCC3)c1)c1ccc2c(c1)OC(F)(F)O2 (single isomer, unassigned) [Compound 285, (R) or (S)-3-[7-(4-Carbamoylphenoxy)-3-(trifluoromethyl)-4,5,6,7-tetrahydroindazol-1-yl]-N-(2,2-difluoro-1,3-benzodioxol-5-yl)-N-methyl-benzamide]",–,> 6.00
"CC(C)C(=O)N1CCc2c(c(C(F)(F)F)nn2-c2cccc(C(=O)N(C)c3ccc4c(c3)OCO4)c2)C1 [Compound 031, N-(1,3-Benzodioxol-5-yl)-N-methyl-3-[5-(2-methylpropanoyl)-3-(trifluoromethyl)-6,7-dihydro-4H-pyrazolo[4,3-c]pyridin-1-yl]benzamide]",–,> 6.00
"CN(C(=O)c1cccc(-n2nc(C(F)(F)F)c3c2C[C@@H]2CC[C@H]3N2C(=O)C(C)(C)C)c1)c1ccc2c(c1)OCO2 (single isomer, unassigned) [Compound 088, (4R,7S)- or (4S,7R)—N-(Benzo[d][1,3]dioxol-5-yl)-N-methyl-3-[(9-pivaloyl-3-(trifluoromethyl)-5,6,7,8-tetrahydro-4,7-epiminocyclohepta[c]pyrazol-1(4H)-yl)]benzamide]",–,> 6.00
"CN(C(=O)c1cccc(-n2nc(C(F)(F)F)c3c2C(Oc2ccc(C(=O)O)cn2)COC3)c1)c1ccc2c(c1)OC(F)(F)O2 (single isomer, unassigned) [Compound 277, (S) or (R)-6-[[1-[3-[(2,2-difluoro-1,3-benzodioxol-5-yl)-methyl-carbamoyl]phenyl]-3-(trifluoromethyl)-6,7-dihydro-4H-pyrano[4,3-c]pyrazol-7-yl]oxy]pyridine-3-carboxylic acid]",–,> 6.00
"CC(C)Oc1cc(N(C)C(=O)c2cccc(-n3nc(C(F)(F)F)c4c3C(Oc3ccc(C(=O)O)cc3)CCC4)c2)ccn1 (racemic) [Compound 317, 4-[[1-[3-[(2-Isopropoxy-4-pyridyl)-methyl-carbamoyl]phenyl]-3-(trifluoromethyl)-4,5,6,7-tetrahydroindazol-7-yl]oxy]benzoic acid]",–,5.70 to 6.00
"Cc1cc2ncc(N(C)C(=O)c3cccc(-n4nc(C(F)(F)F)c5c4[C@H](Oc4ccc(C(=O)O)cc4)CCC5)c3)cn2n1 (single isomer, unassigned) [Compound 217, (S) or (R)-4-[[1-[3-[Methyl-(2-methylpyrazolo[1,5-a]pyrimidin-6-yl)carbamoyl]phenyl]-3-(trifluoromethyl)-4,5,6,7-tetrahydroindazol-7-yl]oxy]benzoic acid]",–,> 6.00
"CN(C(=O)c1cccc(-n2nc(C(F)(F)F)c3c2C(Oc2ccc(C(=O)O)cc2)CCC3)c1)c1ccnc(C(F)(F)F)c1 (racemic) [Compound 315, 4-[[1-[3-[Methyl-[2-(trifluoromethyl)-4-pyridyl]carbamoyl]phenyl]-3-(trifluoromethyl)-4,5,6,7-tetrahydroindazol-7-yl]oxy]benzoic acid]",–,5.70 to 6.00
"CN(C(=O)c1cccc(-n2nc(C(F)(F)F)c3c2C(Oc2ccc(C(=O)O)cc2)COC3)c1)c1cnc2c(c1)CCC2 (racemic) [Compound 281, 4-[[1-[3-[6,7-Dihydro-5H-cyclopenta[b]pyridin-3-yl(methyl)carbamoyl]phenyl]-3-(trifluoromethyl)-6,7-dihydro-4H-pyrano[4,3-c]pyrazol-7-yl]oxy]benzoic acid]",–,5.70 to 6.00
"CN(C(=O)c1cccc(-n2nc(C(F)(F)F)c3c2CN(C(=O)OC(C)(C)C)CC3)c1)c1ccc2c(c1)OCO2 [Compound 027, tert-Butyl 1-[3-[1,3-benzodioxol-5-yl(methyl)carbamoyl]phenyl]-3-(trifluoromethyl)-5,7-dihydro-4H-pyrazolo[3,4-c]pyridine-6-carboxylate]",–,> 6.00
"COC(=O)c1ccc(S(=O)(=O)N2CCc3c(C(F)(F)F)nn(-c4cccc(C(=O)N(C)c5ccc6c(c5)OCO6)c4)c3C2)cc1 [Compound 075, Methyl 4-[[1-[3-[1,3-benzodioxol-5-yl(methyl)carbamoyl]phenyl]-3-(trifluoromethyl)-5,7-dihydro-4H-pyrazolo[3,4-c]pyridin-6-yl]sulfonyl]benzoate]",–,> 6.00
"CN(C(=O)c1cccc(-n2nc(C(F)(F)F)c3c2CCN(C(=O)C(C)(C)C(F)(F)F)C3)c1)c1ccc2c(c1)OCO2 [Compound 033, N-(1,3-Benzodioxol-5-yl)-N-methyl-3-[5-(3,3,3-trifluoro-2,2-dimethyl-propanoyl)-3-(trifluoromethyl)-6,7-dihydro-4H-pyrazolo[4,3-c]pyridin-1-yl]benzamide]",–,> 6.00
"CN(C(=O)c1cccc(-n2nc(C(F)(F)F)c3c2C(Oc2ccc(C(=O)O)cc2)CCC3)c1)c1ccc2c(c1)OC(F)(F)O2 (stereo not shown) [Compound 109, 4-[[1-[3-[(2,2-Difluoro-1,3-benzodioxol-5-yl)-methyl-carbamoyl]phenyl]-3-(trifluoromethyl)-4,5,6,7-tetrahydroindazol-7-yl]oxy]benzoic acid]",–,> 6.00
"CN1CCc2c(C(F)(F)F)nn(-c3cccc(C(=O)N(C)c4ccc5c(c4)OCO5)c3)c2C1 [Compound 029, N-(1,3-Benzodioxol-5-yl)-N-methyl-3-[6-methyl-3-(trifluoromethyl)-5,7-dihydro-4H-pyrazolo[3,4-c]pyridin-1-yl]benzamide]",–,> 6.00
